Where two headings read alike, the source gives them in different places.
Tests used:
Assay in all cases: cells
Assay type in all cases: cell-based
[1] = tested on: MCF-7 cells stably expressing UbC HA-ER-α Y537N; conditions: UbC HA-ER-α Y537N; for EC50: Homo sapiens, MCF7, read-out: Potency (EC50; nM); for Percent inhibition compared to vehicle: 5-Day Incubation; for Efficacy (Emax): Day 5 relative to Day 0
Method in brief: (§1)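 CellTiter-Glo read-out: background-subtracted RLU divided by day-0 RLU gives fold proliferation. Cells were MCF-7 transduced with HA-ER-α lentivirus (EF1 high or UbC low-moderate promoter) or empty vector, dosed 10 μM–5 pM for 5 days in phenol-free RPMI/10% CSS.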

[2] = tested on: MCF-7 cells stably expressing UbC HA-ER-α E380Q; conditions: UbC HA-ER-α E380Q; for EC50: Homo sapiens, MCF7, read-out: Potency (EC50; nM); for Percent inhibition compared to vehicle: 5-Day Incubation; for Efficacy (Emax): Day 5 relative to Day 0
Method in brief: (§2)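 Stable HA-ER-α MCF-7 lines are treated with compound for 5 days in phenol-free, charcoal-stripped medium. Viability is measured by CellTiter-Glo and expressed relative to the time-zero plate.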

[3] = tested on: MCF-7 cells stably expressing EF1 HA-ER-α L536R; conditions: EF1 HA-ER-α L536R; for Percent inhibition compared to vehicle: 5-Day Incubation; for Efficacy (Emax): Day 5 relative to Day 0; for EC50: Homo sapiens, MCF7, read-out: Potency (EC50; nM)
Method in brief: as §2

[4] = tested on: MCF-7 cells stably expressing UbC HA-ER-α L536P; conditions: for EC50: Homo sapiens, MCF7, read-out: Potency (EC50; nM)
Method in brief: as §1

[5] = tested on: MCF-7 cells stably expressing EF1 HA-ER-α L536P; conditions: EF1 HA-ER-α L536P; for Percent inhibition compared to vehicle: 5-Day Incubation; for Efficacy (Emax): Day 5 relative to Day 0; for EC50: Homo sapiens, MCF7, read-out: Potency (EC50; nM)
Method in brief: as §2

[6] = tested on: MCF-7 cells stably expressing EF1 HA-ER-α E380Q; conditions: EF1 HA-ER-α E380Q; for Percent inhibition compared to vehicle: 5-Day Incubation; for Efficacy (Emax): Day 5 relative to Day 0; for EC50: Homo sapiens, MCF7, read-out: Potency (EC50; nM)
Method in brief: as §1

[7] = tested on: MCF-7 cells stably expressing UbC HA-ER-α L536R; conditions: UbC HA-ER-α L536R; for EC50: Homo sapiens, MCF7, read-out: Potency (EC50; nM); for Percent inhibition compared to vehicle: 5-Day Incubation; for Efficacy (Emax): Day 5 relative to Day 0
Method in brief: as §1

[8] = tested on: MCF-7 cells stably expressing EF1 HA-ER-α Y537N; conditions: EF1 HA-ER-α Y537N; for Efficacy (Emax): Day 5 relative to Day 0; for EC50: Homo sapiens, MCF7, read-out: Potency (EC50; nM)
Method in brief: as §2

[9] = Antagonist Mode, −E2 (Table 27)
[10] = Antagonist Mode, +E2, 5-Day Incubation

## C[C@]12CC[C@@H]3c4ccc(O)cc4C[C@@H](CCCCCCCCC[S+]([O-])CCCC(F)(F)C(F)(F)F)[C@H]3[C@@H]1CC[C@@H]2O (stereo partly drawn) [Fulvestrant]
[1]; Agonist Mode, −E2
  EC50: 0.355 ± 0.163 nM
  Percent inhibition compared to vehicle: 63%
  Efficacy (Emax): 1.61 ± 0.15
[1]; Antagonist Mode, +E2
  EC50: 1.77 ± 0.387 nM
  Percent inhibition compared to vehicle: 77%
  Efficacy (Emax): 1.49 ± 0.00
[2]; Agonist Mode, −E2
  EC50: 0.248 ± 0.094 nM
  Percent inhibition compared to vehicle: 60%
  Efficacy (Emax): 1.70 ± 0.30
[2]; Antagonist Mode, +E2
  EC50: 1.14 ± 0.028 nM
  Percent inhibition compared to vehicle: 76%
  Efficacy (Emax): 1.70 ± 0.32
[3]; Agonist Mode, −E2
  Percent inhibition compared to vehicle: 42%
  Efficacy (Emax): 3.95 ± 0.36
  EC50: 6.29 ± 1.13 nM
[3]; Antagonist Mode, +E2
  Percent inhibition compared to vehicle: 48%
  Efficacy (Emax): 3.53 ± 0.28
  EC50: 35 ± 2.77 nM
[3]; [9]
  EC50: 6.29 ± 1.13 nM
[4]; Agonist Mode, −E2, 5-Day Incubation
  Percent inhibition compared to vehicle: 47%
[4]; Agonist Mode, −E2, Day 5 relative to Day 0
  Efficacy (Emax): 1.66 ± 0.11
[4]; [10]
  Percent inhibition compared to vehicle: 71%
[4]; Antagonist Mode, +E2, Day 5 relative to Day 0
  Efficacy (Emax): 1.73 ± 0.08
[4]; Agonist Mode, −E2
  EC50: 0.298 ± 0.132 nM
[4]; Antagonist Mode, +E2
  EC50: 2.59 ± 2.58 nM
[5]; Agonist Mode, −E2
  Percent inhibition compared to vehicle: 56%
  Efficacy (Emax): 3.58 ± 0.10
  EC50: 4.51 ± 0.313 nM
[5]; Antagonist Mode, +E2
  Percent inhibition compared to vehicle: 60%
  Efficacy (Emax): 3.65 ± 0.56
  EC50: 16.4 ± 8.21 nM
[5]; [9]
  EC50: 4.51 ± 0.313 nM
[6]; Agonist Mode, −E2
  Percent inhibition compared to vehicle: 62%
  Efficacy (Emax): 2.50 ± 0.03
  EC50: 4.36 ± 3.23 nM
[6]; Antagonist Mode, +E2
  Percent inhibition compared to vehicle: 65%
  Efficacy (Emax): 2.21 ± 0.12
  EC50: 10.3 ± 2.62 nM
[6]; [9]
  EC50: 4.36 ± 3.23 nM
[7]; Agonist Mode, −E2
  EC50: 0.257 ± 0.09 nM
  Percent inhibition compared to vehicle: 55%
  Efficacy (Emax): 1.71 ± 0.22
[7]; Antagonist Mode, +E2
  EC50: 2.3 ± 1.81 nM
  Percent inhibition compared to vehicle: 71%
  Efficacy (Emax): 1.71 ± 0.16
[8]; Agonist Mode, −E2
  Efficacy (Emax): 0.52 ± 0.09
  EC50: 9.26 ± 2.39 nM
[8]; [10]
  Percent inhibition compared to vehicle: 90%
[8]; Antagonist Mode, +E2
  Efficacy (Emax): 0.56 ± 0.02
  EC50: 12.4 ± 3.52 nM
[8]; [9]
  EC50: 9.26 ± 2.39 nM

Source: patent US9855270B2, “Methods and compositions for modulating estrogen receptor mutants” (priority 2014, dated 2018)
